Experimental data from paper PMC8621770, “New Compounds with Bioisosteric Replacement of Classic Choline Kinase Inhibitors Show Potent Antiplasmodial Activity” (Pharmaceutics, 2021).
Like-named read-outs stand apart in the source and are kept apart here. Blank lines part the entries; values can stand above or below the molecule they belong to.

Assays:
PfCK = target: T1, PfCK (Plasmodium falciparum, UniProt Q8IM71); test: Spectrophotometric coupled enzymatic assay for PfCK activity (substrate choline); assay type: biochemical; details: for remaining activity at 25 µM: read-out: PfCK Fractional Activity at 25 µM; for IC50: IC50 PfCK b (compound concentration required to inhibit PfCK enzyme by 50%), substrate choline 4 mM, ATP 2 mM
T1 construct: A truncated form of PfCK (Δ79-440) featuring an N-terminal 6× His-tag; 6xHis (N); host or cells: Escherichia coli BL21 (DE3) Star
Protocol: A truncated form of PfCK (Δ79-440) featuring an N-terminal 6× His-tag was purchased from Genescript (Piscataway, NJ, USA), cloned into a pET-28a vector and transformed into Escherichia coli BL21 (DE3) Star cells (Invitrogen, Carlsbad, CA, USA). The transformed bacteria were cultured in Luria-Bertani (LB) medium at 37 °C until OD600 = 0.6 and the expression was induced with 1 mM isopropyl β-D-1-thiogalactopyranoside (IPTG). The cell culture was grown overnight at 20 °C and 180 rpm. Cells were pelleted by centrifugation at 10,000 rpm, resuspended in 50 mM Tris/HCl pH 7.5, 500 mM NaCl, 0.2 mM phenylmethylsulphonyl fluoride (PMSF, Sigma Aldrich, St. Luis, MO, USA), DNase (Sigma Aldrich, St. Luis, MO, USA), 0.5 mM β-mercaptoethanol (Sigma Aldrich, St. Luis, MO, USA) and sonicated. Separation of the soluble from the insoluble fraction was obtained by centrifugation at 15,000 rpm and 4 °C. The target enzyme was purified by a two-step purification protocol. In the first step, the cell lysate was incubated for 45 min with Ni-NTA resin (Qiagen, Venlo, The Netherlands) in a gravity column. Then, the column was washed with 40 column volumes (CV) of 50 mM Tris/HCl pH 7.5, 300 mM NaCl, 10 mM imidazole and 1 CV of 50 mM Tris/HCl pH 7.5, 300 mM NaCl, 40 mM imidazole. Finally, the His-tagged enzyme was eluted from the column using a 50 mM Tris/HCl pH 7.5, 300 mM NaCl, 400 mM imidazole buffer. A subsequent size-exclusion chromatography step was implemented to further polish the sample using a HiPrep 26/60 Sephacryl 100 HR column (GE Healthcare, Little Chalfont, Buckinghamshire, UK) previously equilibrated with 20 mM Tris/HCl pH 7.5, 150 mM NaCl buffer. This second purification step afforded a pure protein sample. The protein production yield was estimated to be nearly 2.5 mg of recombinant enzyme per liter of bacterial culture.
A spectrophotometric 96-well plate assay for PfCK activity was established based on an assay previously described. The reaction mix was composed as follows: 100 mM Tris/HCl pH 7.5, 100 mM KCl, 10 mM MgCl2, 0.5 mM phosphoenolpyruvate, 0.25 mM NADH, 4 U of pyruvate kinase, 5 U lactate dehydrogenase, 2 mM ATP, 4 mM choline chloride and different concentrations of the selected compounds. All the necessary compounds for the assay were purchased from Sigma Aldrich (St. Luis, MO, USA) and the final assay volume was 200 μL. The enzymatic reaction was initiated by the addition of the enzyme at less than 10 nM concentration and the reaction rates were measured by monitoring the decrease in the absorbance at 340 nm for 20 min at room temperature using a Spark10M instrument (Tecan). Finally, the IC50 values for each compound were determined by plotting the enzyme fractional activity (f.a.) against the logarithm of compound concentration (log[I]). Curve-fitting was performed with a dose-response curve from Origin (OriginLab Corporation, Northampton, MA, USA), using the following equation: f.a.=1/1+10^logIC50−logI
All data points were collected in triplicate and the final dose-response curves were plotted with MATLAB (R2018a (9.4.0.813654), 2018, MathWorks, Natick, MA, USA). See curves in Figure S1 in Supplementary Materials.

P. falciparum strain 3D7 = test: Antimalarial activity, P. falciparum lactate dehydrogenase growth inhibition assay; assay type: cell-based, Plasmodium falciparum; details: for fold difference in antimalarial activity, bipyridinyl vs biphenylic counterparts: Fg-13 and Fg-17 vs Fg-14 and Fa-21; for IC50: Plasmodium falciparum; for fold decrease in antimalarial activity with respect to the reference compounds BR-23 / BR-25: Fg-9, Fa-21, Fg-14 vs BR-23, Ff-1, Ff-7, Ff-3 vs BR-25
Protocol: Parasites of the P. falciparum strain 3D7 were grown in fresh group 0 positive human erythrocytes, obtained from the Centro Regional de Transfusion Sanguínea-SAS (Granada, Spain) and suspended at 5% haematocrit in RPMI 1640 containing 2% human serum, 0.2% NaHCO3, 0.5% Albumax II, 150 μM hypoxanthine, and […] gentamicin. Flasks were incubated at 37 °C, under 5% CO2 and 95% air mixture. […] The stock culture was then diluted with complete medium and non-parasitized erythrocytes to yield a haematocrit of 2% and parasitemia of 0.25%. Stock solutions of the test drugs were prepared at an initial concentration of 200 mM in DMSO, serially diluted and dispensed into triplicate in 96-well plates to yield final concentrations ranging from 0.0039 to 2 μM. The final well volume was 200 μL with a final concentration of DMSO 0.001%. Each plate also included positive growth controls, where only medium were added, and negative growth controls with 100 nM of chloroquine. […] A multidrop dispenser was used to add 50 μL of synchronized parasite culture per well. After 72 h of growth in presence of test compounds, the plates were stored frozen at −20 °C for at least 24 h. Next, they were thawed at room temperature. Parasite growth inhibition assays and IC50 determinations were carried out following the P. falciparum lactate dehydrogenase assay where parasite viability is quantified by measuring LDH activity upon APAD+ addition, a cofactor that is specific to the Plasmodium enzyme. To evaluate LDH activity, 140 μL of freshly made reaction mix, containing 143 mM sodium L-lactate, 143 μM APAD, 178.75 μM NBT, 1 U/mL diaphorase, 0.7% Tween 20 and 100 mM Tris-HCl (pH 8.0) were dispensed into plates. After 10 min of incubation in the dark at room temperature, absorbance was measured at 630 nm with a vmax precision multiwell plate reader from Molecular Devices, by using the accompanying SOFT maxPro software for analysis.

[1] = Erythrocyte, P. falciparum 3D7 in human erythrocytes, 72 h, LDH readout, read-out: IC50 a (In vitro IC50 values against P. falciparum)
[2] = 3D7, Erythrocyte, infected erythrocytes, P. falciparum, read-out: antimalarial activity (IC50), as given in the text

T1 sequence (Q8IM71 entry or part of it): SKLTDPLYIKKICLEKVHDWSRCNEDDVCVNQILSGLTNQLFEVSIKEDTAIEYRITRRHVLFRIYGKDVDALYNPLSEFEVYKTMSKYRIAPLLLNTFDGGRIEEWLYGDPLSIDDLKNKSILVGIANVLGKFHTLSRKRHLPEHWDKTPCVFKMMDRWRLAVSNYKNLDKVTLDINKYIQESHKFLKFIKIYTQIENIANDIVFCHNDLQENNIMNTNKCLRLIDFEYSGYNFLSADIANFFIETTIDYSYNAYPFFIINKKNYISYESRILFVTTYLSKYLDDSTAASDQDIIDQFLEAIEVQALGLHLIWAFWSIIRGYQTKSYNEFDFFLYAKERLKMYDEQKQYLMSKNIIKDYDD

Compound: [Br-].[Br-].c1cc2c(s1)c(N1CCCC1)nc[n+]2Cc1ccc(-c2ccc(C[n+]3cnc(N4CCCC4)c4sccc43)cn2)nc1 [Fg-17, 1,1’-([2,2’-bipyridine]-5,5’-diylbis(methylene))bis(4-(pyrrolidin-1-yl)thieno[3,2-d]pyrimidin-1-ium) bromide]
remaining activity at 25 µM (PfCK): 50.3 ± 7.88%
fold difference in antimalarial activity, bipyridinyl vs biphenylic counterparts (P. falciparum strain 3D7): > 10 fold
IC50 (P. falciparum strain 3D7; [1]): 227 nM
melting point: 330 to 332 °C

Compound: [Br-].[Br-].c1cc2c(N3CCCCCC3)nc[n+](Cc3ccc(-c4ccc(C[n+]5cnc(N6CCCCCC6)c6ccsc65)cn4)nc3)c2s1 [Fg-20, 1,1’-([2,2’-bipyridine]-5,5’-diylbis(methylene))bis(4-(azepan-1-yl)thieno[2,3-d]pyrimidin-1-ium) bromide]
remaining activity at 25 µM (PfCK): 96.6 ± 13.1%
IC50 (P. falciparum strain 3D7; [1]): 97.6 nM
melting point: 289 to 291 °C

Compound: [Br-].[Br-].c1cc2c(s1)c(N1CCCC1)cc[n+]2Cc1ccc(OCCOc2ccc(C[n+]3ccc(N4CCCC4)c4sccc43)cc2)cc1 [Ff-2, 4,4’-(((ethane-1,2-diylbis(oxy))bis(4,1-phenylene))bis(methylene))bis(7-(pyrrolidin-1-yl)thieno[3,2-b]pyridin-4-ium) bromide]
remaining activity at 25 µM (PfCK): 81.8 ± 3.93%
IC50 (P. falciparum strain 3D7; [1]): 74 nM
melting point: 280 to 282 °C

Compound: [Br-].[Br-].c1cc2c(N3CCCC3)nc[n+](Cc3ccc(OCCOc4ccc(C[n+]5cnc(N6CCCC6)c6ccsc65)cc4)cc3)c2s1 [Ff-4, 1,1’-(((ethane-1,2-diylbis(oxy))bis(4,1-phenylene))bis(methylene))bis(4-(pyrrolidin-1-yl)thieno[2,3-d]pyrimidin-1-ium) bromide]
IC50 (PfCK): 37400 ± 3240 nM
remaining activity at 25 µM (PfCK): 90.7 ± 4.57%
IC50 (P. falciparum strain 3D7; [2]): ~11 nM
IC50 (P. falciparum strain 3D7; [1]): 11.5 nM
melting point: 193 to 195 °C

Compound: [Br-].[Br-].c1cc2c(N3CCCC3)nc[n+](Cc3ccc(CCc4ccc(C[n+]5cnc(N6CCCC6)c6ccsc65)cc4)cc3)c2s1 [Fg-15, 1,1’-((ethane-1,2-diylbis(4,1-phenylene))bis(methylene))bis(4-(pyrrolidin-1-yl)thieno[2,3-d]pyrimidin-1-ium) bromide]
remaining activity at 25 µM (PfCK): 97.5 ± 9.22%
IC50 (P. falciparum strain 3D7; [2]): ~11 nM
IC50 (P. falciparum strain 3D7; [1]): 12.7 nM
melting point: 293 to 295 °C

Compound: [Br-].[Br-].c1cc2c(s1)c(N1CCCC1)nc[n+]2Cc1ccc(OCCOc2ccc(C[n+]3cnc(N4CCCC4)c4sccc43)cc2)cc1 [Ff-8, 1,1’-(((ethane-1,2-diylbis(oxy))bis(4,1-phenylene))bis(methylene))bis(4-(pyrrolidin-1-yl)thieno[3,2-d]pyrimidin-1-ium) bromide]
remaining activity at 25 µM (PfCK): 63.1 ± 6.74%
IC50 (P. falciparum strain 3D7; [1]): 35.2 nM
melting point: 217 to 219 °C

Compound: [Br-].[Br-].c1cc2c(N3CCCCCC3)nc[n+](Cc3ccc(CCCCc4ccc(C[n+]5cnc(N6CCCCCC6)c6ccsc65)cc4)cc3)c2s1 [Ff-35, (1,1’((butane1,4diylbis(4,1phenylene))bis(methylene))bis(4-(azepan-1-yl)thieno[2,3-d]pyrimidin-1-ium)) bromide]
remaining activity at 25 µM (PfCK): 57.6 ± 12.3%
IC50 (P. falciparum strain 3D7; [1]): 48.4 nM
melting point: 117 to 119 °C

Compound: [Br-].[Br-].c1cc2c(s1)c(N1CCCC1)nc[n+]2Cc1ccc(CCCCc2ccc(C[n+]3cnc(N4CCCC4)c4sccc43)cc2)cc1 [Ff-7, 1,1’-((butane-1,4-diylbis(4,1-phenylene))bis(methylene))bis(4-(pyrrolidin-1-yl)thieno[3,2-d]pyrimidin-1-ium) bromide]
IC50 (PfCK): 13300 ± 3820 nM
remaining activity at 25 µM (PfCK): 55 ± 4.07%
fold decrease in antimalarial activity with respect to the reference compounds BR-23 / BR-25 (P. falciparum strain 3D7): 10 fold
IC50 (P. falciparum strain 3D7; [1]): 21.9 nM
melting point: 215 to 217 °C

Compound: [Br-].[Br-].c1cc2c(N3CCCC3)nc[n+](Cc3ccc(-c4ccc(C[n+]5cnc(N6CCCC6)c6ccsc65)cn4)nc3)c2s1 [Fg-13, 1,1’-([2,2’-bipyridine]-5,5’-diylbis(methylene))bis(4-(pyrrolidin-1-yl)thieno[2,3-d]pyrimidin-1-ium) bromide]
remaining activity at 25 µM (PfCK): 99.1 ± 12%
fold difference in antimalarial activity, bipyridinyl vs biphenylic counterparts (P. falciparum strain 3D7): > 10 fold
IC50 (P. falciparum strain 3D7; [1]): 143 nM
melting point: 238 to 240 °C

Compound: [Br-].[Br-].c1cc2c(s1)c(N1CCCC1)cc[n+]2Cc1ccc(CCc2ccc(C[n+]3ccc(N4CCCC4)c4sccc43)cc2)cc1 [Fg-11, 4,4’-((ethane-1,2-diylbis(4,1-phenylene))bis(methylene))bis(7-(pyrrolidin-1-yl)thieno[3,2-b]pyridin-4-ium) bromide]
IC50 (PfCK): 16500 ± 1430 nM
remaining activity at 25 µM (PfCK): 33 ± 1.48%
IC50 (P. falciparum strain 3D7; [1]): 232 nM
melting point: 253 to 255 °C

Compound: [Br-].[Br-].c1cc2c(s1)c(N1CCCCCC1)nc[n+]2Cc1ccc(CCCCc2ccc(C[n+]3cnc(N4CCCCCC4)c4sccc43)cc2)cc1 [Fa-29, (1,1’((butane1,4diylbis(4,1phenylene))bis(methylene))bis(4-(azepan-1-yl)thieno[3,2-d]pyrimidin-1-ium)) bromide]
IC50 (PfCK): 4640 ± 200 nM
remaining activity at 25 µM (PfCK): 46.7 ± 9.49%
IC50 (P. falciparum strain 3D7; 3D7, Erythrocyte, 72 h, read-out: IC50 a (In vitro IC50 values against P. falciparum)): 55.6 nM
melting point: 268 to 270 °C

Compound: [Br-].[Br-].c1cc2c(N3CCCCC3)nc[n+](Cc3ccc(CCc4ccc(C[n+]5cnc(N6CCCCC6)c6ccsc65)cc4)cc3)c2s1 [Fg-31, 1,1’-((ethane-1,2-diylbis(4,1-phenylene))bis(methylene))bis(4-(piperidin-1-yl)thieno[2,3-d]pyrimidin-1-ium) bromide]
remaining activity at 25 µM (PfCK): 87.4 ± 2.2%
IC50 (P. falciparum strain 3D7; [1]): 34.7 nM
melting point: 295 to 297 °C

IC50 (P. falciparum strain 3D7; [1]): 13.7 nM
melting point: 312 to 315 °C
Compound: [Br-].[Br-].c1cc2c(s1)c(N1CCCC1)nc[n+]2Cc1ccc(-c2ccc(C[n+]3cnc(N4CCCC4)c4sccc43)cc2)cc1 [Fa-21, 1,1’-([1,1’-biphenyl]-4,4’-diylbis(methylene))bis(4-(pyrrolidin-1-yl)thieno[3,2-d]pyrimidin-1-ium) bromide]
fold decrease in antimalarial activity with respect to the reference compounds BR-23 / BR-25 (P. falciparum strain 3D7): 10 fold
